Columns and labels:
human Factor XIa = target: T1, human Factor XIa (Homo sapiens, UniProt P03951); assay: Factor XIa enzyme inhibition assay (IC50, purified enzyme); type: biochemical; conditions: purified enzyme 0.25 nM, substrate 50 μM; read-out: Potency hFXIa IC50
T1 construct: Enzyme: Factor XIa; 0.25 μM in 50% glycerol (20 μg/mL)
Procedure: (§1) • Assay buffer: 20 mM Hepes, pH 7.4; 150 mM NaCl; 0.02% Tween 20 • Compounds: 10 mM stocks in DMSO • Substrate: 20 mM Glp-Pro-Arg-AMC, 25 mg/2.3 mL H2O (store at +4° C.) [Factor XIa, thrombin, and trypsin] • 20 mM Pro-Phe-Arg-AMC (Bachem I-1295), 25 mg/2.2 mL H2O (store at +4° C.) [Factor Xa] • Enzyme: Factor XIa; 0.25 μM in 50% glycerol (20 μg/mL) • Trypsin; 0.2 μM in 50% glycerol (4.8 μg/mL) • Thrombin; 0.2 μM in 50% glycerol (7.34 μg/mL) • Factor Xa; 0.2 μM in 50% glycerol (9.2 μg/mL) • These stocks are aliquoted ([…]) and stored at −20° C. Methods: • 1. Dilute the substrate to 100 μM in assay buffer (30 μL/6 mL). The enzyme is diluted to 0.5 nM just prior to use (12 μL/6 mL for Factor XIa; 15 μL/6 mL for all of the rest.) • 2. Pipette 50 μL of substrate into each well of the 96 well (12×8) microtiter plate. (Column 1 is used as the 100% activity control and receives no compound, and Column 12 is the blank and receives no enzyme.) Add an additional 46 μL to column 2. • 3. Pipette 4 μL of each compound into the appropriate well in column 2 of the plate (unknowns assayed in triplicate, standard assayed in duplicate). The final compound concentration will be 1/50th of the stock. • 4. Serially two-fold dilute the compound by mixing the sample in column 2, removing 50 μL to the next well (column 3), mix and remove to column 4, etc. until column 11. After mixing column 11, remove 50 μL and discard. • 5. Pipette 50 μL of buffer into column 12. Initiate the reaction by adding 50 μL of enzyme solution to each well of columns 1-11 as rapidly as possible. • 6. Read the plate in a spectrophotometer (SpectraMax) at 30° C., wherein each well is measured every 60 s for 30 min. For Factor Xa assays, each well is measured every 1 min for a total of 60 min. • 7. For Factor XIa assays, the compounds are assayed, in duplicate, at 3 different starting concentrations, 20, 2, and 0.2 μM; 1:10, 1:100, and 1:1000 dil'n of 10 mM stock. All data sets are combined for graphing and data fitting. • 8. Data can be used both for estimation of IC50 and for estimation of Kon.
Potential inhibitors of Factor XIa were evaluated using the following assay.
S-2366, pyroGlu-Pro-Arg-7-methylaminocourin (AMC), available from CPC Scientific, Inc., is based on the substrate pyro-Glu-Pro-Arg-pNA, available from Diapharma Group, Inc. (Columbus, Ohio), where the p-nitroanaline group is replaced with 7-methylaminocoumarin (AMC).
The final concentration of the substrate in the assay was 50 μM, and the final concentration of the enzyme was 0.25 nM. Inhibitors were tested by serial dilution over an appropriate range to yield a dose response curve for determination of the inhibitors' IC50 value. The assay mixture was read every minute for 30 minutes in order to generate progress curves. The plates were read in a Spectramax m5 Multimode Plate Reader (Molecular Devices LLC, Sunnyvale, Calif.). Dose response curves were fit to Equation 1 below in which A is the maximum inhibition, B is the minimum inhibition, C is the IC50, and D is the Hill coefficient. [(A−B)/(1+(X/C)^D)]+B (Equation 1)

Factor Xa = target: T2, Factor Xa (Homo sapiens, UniProt P00742); assay: Dose response assay for protease inhibitors: Factor Xa (FXIa fold selectivity); type: biochemical; conditions: fold selectivity for FXIa over Factor Xa
T2 construct: Factor Xa; 0.2 μM in 50% glycerol (9.2 μg/mL)
Procedure: as §1

Thrombin = target: T3, Thrombin (Homo sapiens, UniProt P00734); assay: Dose response assay for protease inhibitors: thrombin (FXIa fold selectivity); type: biochemical; conditions: fold selectivity for FXIa over thrombin
T3 construct: Thrombin; 0.2 μM in 50% glycerol (7.34 μg/mL)
Procedure: as §1

Trypsin = assay: Dose response assay for protease inhibitors: trypsin (FXIa fold selectivity); type: biochemical; conditions: fold selectivity for FXIa over trypsin
Procedure: as §1

[1] = β-Lactam stability in rat plasma; type: in vitro ADME; conditions: normal rat plasma, room temperature; read-out: Rat Plasma Stability (T1/2; min)
Procedure: Normal rat plasma, stored at −80° C.
• 1. Place 6 μL of each compound into 0.5 mL microcentrifuge tubes or 96-well U-bottom, polypropylene microtiter plate • 2. Place 40 μL of acetonitrile (AcN) into 0.5 mL microcentrifuge tubes labeled 1-9 • 3. Add 114 μL of plasma to each compound • 4. Sample 10 μL of compound/plasma into AcN at 2, 10, 20, 30, 60, 90, 120, 240, and 480 min of incubation at room temperature • 5. Mix each time point after adding sample and place on ice. • 6. Centrifuge time points (12,000 rpm, 3 min), remove 15 μL of the supernatant and mix with 15 μL 0.1% TFA in a V-bottom microtiter plate. • 7. Place microtiter plate in autosampler of HPLC and analyze on Restek Pinnacle C18 column (2.1×100 mm). • 8. Generate extracted ion chromatogram for parent compound and parent compound+18 (H2O). Integrate extracted ion chromatograms (EIC) and plot % total peak area for parent and adduct versus time. Fit to a model of single phase exponential decay [Y=A0*exp(−k*x)+C]. T½ is equal to ln(2)/k.

T2 sequence (P00742 235-488 limits assumed): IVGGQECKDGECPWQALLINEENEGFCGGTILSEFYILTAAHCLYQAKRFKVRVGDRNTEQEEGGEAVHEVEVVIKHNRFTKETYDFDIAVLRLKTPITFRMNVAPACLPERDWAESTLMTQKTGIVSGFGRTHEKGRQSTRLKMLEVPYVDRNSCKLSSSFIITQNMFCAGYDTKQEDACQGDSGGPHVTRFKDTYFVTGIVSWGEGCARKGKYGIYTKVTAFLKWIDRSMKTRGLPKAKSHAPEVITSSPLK
T2 sequence (P00742 41-179 partner limits assumed): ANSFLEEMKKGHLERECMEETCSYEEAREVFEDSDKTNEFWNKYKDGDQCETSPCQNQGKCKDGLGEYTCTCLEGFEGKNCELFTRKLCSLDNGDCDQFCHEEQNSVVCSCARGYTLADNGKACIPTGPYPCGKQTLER
T1 sequence (P03951 388-625 limits assumed): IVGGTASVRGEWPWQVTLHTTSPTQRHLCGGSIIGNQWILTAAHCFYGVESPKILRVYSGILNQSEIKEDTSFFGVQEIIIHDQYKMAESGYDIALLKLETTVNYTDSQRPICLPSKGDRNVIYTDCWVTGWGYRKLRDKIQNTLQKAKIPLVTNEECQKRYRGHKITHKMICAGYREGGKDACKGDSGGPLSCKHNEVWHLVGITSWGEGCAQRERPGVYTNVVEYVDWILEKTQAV
T1 sequence (P03951 19-387 partner limits assumed): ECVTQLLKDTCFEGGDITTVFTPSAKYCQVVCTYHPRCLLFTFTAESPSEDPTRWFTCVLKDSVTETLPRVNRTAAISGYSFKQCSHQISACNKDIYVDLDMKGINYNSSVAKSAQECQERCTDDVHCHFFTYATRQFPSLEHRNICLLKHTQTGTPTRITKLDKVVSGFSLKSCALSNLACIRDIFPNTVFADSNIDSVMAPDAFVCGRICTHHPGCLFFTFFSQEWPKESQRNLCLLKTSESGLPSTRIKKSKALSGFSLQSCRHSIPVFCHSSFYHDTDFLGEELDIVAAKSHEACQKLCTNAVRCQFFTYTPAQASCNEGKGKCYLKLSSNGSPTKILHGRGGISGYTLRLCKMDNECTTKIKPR

Structure (SMILES) | IC50 (human Factor XIa) | FXIa Fold Selectivity FXa (Factor Xa) | FXIa Fold Selectivity Thrombin (Thrombin) | half-life [1] | FXIa Fold Selectivity Trypsin (Trypsin)
CC(NC(=O)N1C(=O)[C@H](Cc2ccnc(N)c2)[C@H]1C(=O)O)c1ccc(OC(F)(F)F)cc1 (some centres unmarked) [Example 47] | < 10 nM | I (“I” indicates >1000) | I (“I” indicates >1000) | > 1.67 h | H (“H” indicates 500-1000)
C[C@@H](NC(=O)N1C(=O)[C@H](Cc2ccnc(N)c2)[C@H]1C(=O)O)c1cccc(OC(F)(F)F)c1 [Example 49] | < 10 nM | H (“H” indicates 500-1000) | I (“I” indicates >1000) | > 1.67 h | G (“G” indicates 1-500)
CCCC(CCC)NC(=O)N1C(=O)[C@H](Cc2ccnc(N)c2)[C@H]1C(=O)O [Example 52] | 10 to 100 nM | H (“H” indicates 500-1000) | I (“I” indicates >1000) | > 1.67 h | G (“G” indicates 1-500)
CON=C[C@@H]1[C@@H](Cc2ccnc(N)c2)C(=O)N1C(=O)N[C@H](C)c1ccccc1 [Example 53] | 10 to 100 nM | G (“G” indicates 1-500) | G (“G” indicates 1-500) | < 1.67 h | G (“G” indicates 1-500)
CCC[C@@H](NC(=O)N1C(=O)[C@H](Cc2ccnc(N)c2)[C@H]1C(=O)O)c1ccc2c(c1)OC(F)(F)O2 [Example 89] | < 10 nM | G (“G” indicates 1-500) | I (“I” indicates >1000) | > 1.67 h | G (“G” indicates 1-500)
CNc1cc(C[C@H]2C(=O)N(C(=O)N[C@H](C)c3ccc4c(c3)OC(F)(F)O4)[C@@H]2C(=O)O)ccn1 [Example 98] | < 10 nM | G (“G” indicates 1-500) | I (“I” indicates >1000) | > 1.67 h | I (“I” indicates >1000)
CCOC(=O)[C@@H]1[C@@H](Cc2ccnc(NC)c2)C(=O)N1C(=O)N[C@H](C)c1ccc2c(c1)OC(F)(F)O2 [Example 99] | < 10 nM | I (“I” indicates >1000) | I (“I” indicates >1000) | < 1.67 h | G (“G” indicates 1-500)
CCOC(=O)[C@@H]1[C@@H](Cc2ccnc(N)c2)C(=O)N1C(=O)N[C@H](C)c1ccc(OC(F)(F)F)cc1 [Example 103] | < 10 nM | I (“I” indicates >1000) | H (“H” indicates 500-1000) | < 1.67 h | G (“G” indicates 1-500)
C[C@@H](NC(=O)N1C(=O)[C@H](Cc2ccnc(N)c2)[C@H]1C(=O)O)C1CCCCCCC1 [Example 104] | < 10 nM | I (“I” indicates >1000) | I (“I” indicates >1000) | > 1.67 h | I (“I” indicates >1000)
O=C(O)[C@@H]1[C@@H](Cc2ccncc2)C(=O)N1C(=O)NC(c1ccccc1)c1ccccc1 [Example 123] | 100 to 1000 nM | G (“G” indicates 1-500) | G (“G” indicates 1-500) | > 1.67 h | G (“G” indicates 1-500)
C[C@H](NC(=O)N1C(=O)[C@H](Cc2ccnc(N)c2)[C@H]1C(=O)O)c1ccc2c(c1)OC(F)(F)O2 [Example 130] | 100 to 1000 nM | G (“G” indicates 1-500) | G (“G” indicates 1-500) | > 1.67 h | G (“G” indicates 1-500)
CCOC(=O)[C@@H]1C(Cc2ccnc(Cl)c2)C(=O)N1C(=O)N[C@H](C)c1ccc2c(c1)OC(F)(F)O2 (some centres unmarked) [Example 132] | 100 to 1000 nM | G (“G” indicates 1-500) | G (“G” indicates 1-500) | < 1.67 h | G (“G” indicates 1-500)

The next lines start with results.

IC50 (human Factor XIa) | FXIa Fold Selectivity FXa (Factor Xa) | FXIa Fold Selectivity Thrombin (Thrombin) | half-life [1] | Structure (SMILES) | FXIa Fold Selectivity Trypsin (Trypsin)
10 to 100 nM | I (“I” indicates >1000) | I (“I” indicates >1000) | > 1.67 h | C[C@@H](NC(=O)N1C(=O)[C@H](Cc2ccnc(N)c2)[C@H]1C(=O)O)c1cccnc1 [Example 40] | I (“I” indicates >1000)
< 10 nM | I (“I” indicates >1000) | I (“I” indicates >1000) | > 1.67 h | CC(NC(=O)N1C(=O)[C@H](Cc2ccnc(N)c2)[C@H]1C(=O)O)c1cccc(F)c1 (some centres unmarked) [Example 42] | H (“H” indicates 500-1000)
10 to 100 nM | G (“G” indicates 1-500) | G (“G” indicates 1-500) | > 1.67 h | Nc1cc(C[C@H]2C(=O)N(C(=O)NCc3cccc4ccccc34)[C@@H]2C(=O)O)ccn1 [Example 43] | G (“G” indicates 1-500)
< 10 nM | I (“I” indicates >1000) | I (“I” indicates >1000) | > 1.67 h | Nc1cc(C[C@H]2C(=O)N(C(=O)N[C@@H](c3ccccc3)C(F)(F)F)[C@@H]2C(=O)O)ccn1 [Example 44] | G (“G” indicates 1-500)
100 to 1000 nM | G (“G” indicates 1-500) | G (“G” indicates 1-500) | > 1.67 h | Nc1cc(C[C@H]2C(=O)N(C(=O)NCc3ccccc3)[C@@H]2C(=O)O)ccn1 [Example 48] | G (“G” indicates 1-500)
> 1000 nM | G (“G” indicates 1-500) | G (“G” indicates 1-500) | > 1.67 h | CNC(=O)N1C(=O)[C@H](Cc2ccnc(N)c2)[C@H]1C(=O)O [Example 55] | G (“G” indicates 1-500)
< 10 nM | G (“G” indicates 1-500) | I (“I” indicates >1000) | > 1.67 h | C[C@@H](NC(=O)N1C(=O)[C@H](Cc2ccnc(N)c2)[C@H]1C(=O)O)c1ccc(F)c(F)c1 [Example 68] | I (“I” indicates >1000)

From patent US11198673B2, “Therapeutic compounds and compositions” (eXIthera Pharmaceuticals, Inc., priority 2014, dated 2021)
